In US7618996B2, “Diaryl ether derivatives and uses thereof” (Pfizer Inc., priority 2006, dated 2009):
pKi: −log10 of the molar value. Counter-ions that a name gives are not always drawn.

Legend:
delta opioid receptor [1] = biological target: T1, delta opioid receptor (Homo sapiens, UniProt P41143); experiment: GTPγ[35S] binding assay at delta opioid receptor (antagonist vs BW-373U86); format: biochemical; design: expressed in transfected cells; settings: average Ki; membranes, challenged with BW-373U86 (1 nM)
Experimental: (§1) GTPγ[^35S] Binding Assays at Opioid Receptors
(§2) Membranes were prepared from cells as described (Bass et al, 1996). GTPγ[^35S] binding assays were performed in a 96 well FlashPlate™ format in duplicate using 100 pM GTPγ[^35S] and 5 μg membrane per well in assay buffer composed of 50 mM Tris HCl, pH 7.4, 5 mM MgCl2, 1 mM EDTA, 100 mM NaCl, 30 μM GDP, 0.1% bovine serum albumin and the following protease inhibitors: 100 μg/ml bacitracin, 100 μg/ml benzamidine, 5 μg/ml aprotinin, 5 μg/ml leupeptin. The assay mix was then incubated at 30° C. with increasing concentrations of antagonist (10^−10 M to 10^−5 M) for 10 minutes and challenged with the agonists BW-373U86 (1 nM), dynorphin-A (10 nM), β-endorphin (1 μM) for opioid receptors delta, kappa, and mu, respectively. The assays were performed at 30° C. for one hour. The FlashPlates were then centrifuged at 2000×g for 10 minutes. Stimulation of GTPγ[^35S] binding was then quantified using a Wallac Microbeta and Ki calculations were done using Prism™ by Graphpad. […] Each of the compounds listed below were tested as their hydrochloride salts unless indicated otherwise. Those Example Numbers with an asterisk (*) were tested as their free base.

kappa opioid receptor [2] = biological target: T2, kappa opioid receptor (Homo sapiens, UniProt P41145); experiment: GTPγ[35S] binding assay at kappa opioid receptor (antagonist vs dynorphin-A); format: biochemical; design: expressed in transfected cells; settings: average Ki; membranes, challenged with dynorphin-A (10 nM)
Experimental: as §1, §2

mu opioid receptor [3] = biological target: T3, mu opioid receptor (Homo sapiens, UniProt P35372); experiment: GTPγ[35S] binding assay at mu opioid receptor (antagonist vs β-endorphin); format: biochemical; design: expressed in transfected cells; settings: average Ki; membranes, challenged with β-endorphin (1 μM)
Experimental: as §1, §2

[4] = literature (Shaw 1991, 1993; Levine 1991); cited from earlier work
kappa opioid receptor [5] = biological target: T2, kappa opioid receptor; settings: literature (Statnick 2003; Zimmerman 1993); cited from earlier work
mu opioid receptor [6] = biological target: T3, mu opioid receptor; settings: literature (Statnick 2003; Zimmerman 1993); cited from earlier work
delta opioid receptor [7] = biological target: T1, delta opioid receptor; settings: compared with mu and kappa; literature; cited from earlier work
[8] = Pharmacokinetic experiment, IV in rats; format: in vivo, rat; settings: male JVC/CAC rats, 1 mg/kg IV; for half-life / clearance / Vd: rat, plasma; for clearance: average of two rats; for Vd: read-out: volume of distribution
Experimental: A representative compound of the present invention (Example 1A) and a comparator compound (Example 2A) were individually dosed into two different male JVC/CAC rats at 1 mg/kg in a 10% ethanol and 90% (30% beta-cyclodextrin sulfobutylether) vehicle. Blood was subsequently collected at 0.083, 0.25, 0.5, 1, 2, 4, 6, 8 and 20 hours post IV administration. After spinning the blood samples down to get plasma, the plasma concentrations were determined by LC/MS/MS. The pharmacokinetic (PK) analysis was determined by inputting the resultant time concentration data into a Watson™ Laboratory Information Management System (LIMS).

T3 sequence (P35372 whole entry): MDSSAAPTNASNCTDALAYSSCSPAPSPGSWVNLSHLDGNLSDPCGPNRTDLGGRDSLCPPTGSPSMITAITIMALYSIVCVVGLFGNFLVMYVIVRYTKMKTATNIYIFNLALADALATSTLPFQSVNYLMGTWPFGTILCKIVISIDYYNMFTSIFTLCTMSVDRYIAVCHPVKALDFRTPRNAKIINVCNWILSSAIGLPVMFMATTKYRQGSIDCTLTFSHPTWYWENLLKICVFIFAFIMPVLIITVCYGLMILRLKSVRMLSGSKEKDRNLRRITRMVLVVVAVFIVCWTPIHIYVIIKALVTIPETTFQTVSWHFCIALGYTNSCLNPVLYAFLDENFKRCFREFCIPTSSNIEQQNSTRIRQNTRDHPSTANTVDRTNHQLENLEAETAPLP
T2 sequence (P41145 whole entry): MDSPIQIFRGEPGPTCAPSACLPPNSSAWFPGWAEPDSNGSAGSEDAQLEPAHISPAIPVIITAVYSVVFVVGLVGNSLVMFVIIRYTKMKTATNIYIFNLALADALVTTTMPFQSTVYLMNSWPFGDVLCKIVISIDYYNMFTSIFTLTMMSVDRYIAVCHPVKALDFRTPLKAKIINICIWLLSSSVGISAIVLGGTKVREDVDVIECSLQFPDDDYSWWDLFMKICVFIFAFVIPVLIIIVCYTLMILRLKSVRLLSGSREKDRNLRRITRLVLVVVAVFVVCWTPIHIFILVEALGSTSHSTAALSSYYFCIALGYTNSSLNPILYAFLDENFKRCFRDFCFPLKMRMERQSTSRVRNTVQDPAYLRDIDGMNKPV
T1 sequence (P41143 whole entry): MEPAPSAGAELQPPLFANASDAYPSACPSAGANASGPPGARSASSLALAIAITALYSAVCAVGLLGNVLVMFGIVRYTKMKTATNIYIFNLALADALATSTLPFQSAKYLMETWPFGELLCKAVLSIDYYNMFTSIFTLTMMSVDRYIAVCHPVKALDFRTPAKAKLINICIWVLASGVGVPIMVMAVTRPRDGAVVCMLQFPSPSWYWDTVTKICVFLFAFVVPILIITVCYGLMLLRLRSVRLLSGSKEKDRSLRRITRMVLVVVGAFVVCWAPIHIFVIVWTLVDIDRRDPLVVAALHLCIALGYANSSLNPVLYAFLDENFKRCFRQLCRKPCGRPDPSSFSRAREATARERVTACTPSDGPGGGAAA

Row | Structure (SMILES) | pKi (delta opioid receptor [1]) | pKi (kappa opioid receptor [2]) | pKi (mu opioid receptor [3]) | also measured
1 | NC(=O)c1ccc(Oc2c(F)cc(CNCCC3CCOCC3)cc2F)cc1O [Example 4E] | 9.45 | 9.38 | 10.02 | –
2 | NC(=O)c1ccc(Oc2ccc(CNCCOc3ccccc3)cc2F)cc1O [Example 3D] | 9.16 | 8.27 | 9.04 | –
3 | NC(=O)c1ccc(Oc2ccc(CNCC3(O)CCCCC3)cc2F)cc1O [Example 3I] | 8.48 | 9.67 | 9.80 | –
4 | CC(C)CCNCc1cc(F)c(Oc2ccc(C(N)=O)c(O)c2)c(F)c1 [Example 4A, 4-(2,6-difluoro-4-{[(3-methybutyl)amino]methyl}phenoxy)-2-hydroxybenzamide] | 9.33 | 9.79 | 10.03 | –
5 | NC(=O)c1ccc(Oc2ccc(CNCCC3CC3)cc2F)cc1O [Example 3A, 4-(4-{[(2-cyclopropylethyl)amino]methyl}-2-fluorophenoxy)-2-hydroxybenzamide, hydrochloride salt] | 9.21 | 9.41 | 9.51 | –
6 | C[C@H]1CN(CC[C@H](O)C2CCCCC2)CC[C@@]1(C)c1cccc(O)c1 [LY255582] | – | – | – | anorectic effects [4]: robust anorectic effects
7 | CC1CNCCC1(C)c1cccc(O)c1 (stereo not shown) [LY515300, 3,4-dimethyl-4-(3-hydroxyphenyl)piperidine] | – | – | – | binding affinity for the kappa-opioid receptor subtype (kappa opioid receptor [5]): sub-nanomolar; binding affinity for the mu-opioid receptor subtype (mu opioid receptor [6]): sub-nanomolar; affinity for the delta-opioid receptor (delta opioid receptor [7]): lower affinity
8 | NC(=O)c1ccc(Oc2ccc(CNC[C@@H]3CCCO3)cc2F)cc1O [Example 3F] | 8.65 | 9.63 | 9.07 | –
9 | NC(=O)c1ccc(Oc2ccc(CNCC3CCOCC3)cc2F)cc1O [Example 3H] | 8.52 | 8.81 | 8.31 | –
10 | CC(C)CCNCc1ccc(Oc2ccc(C(N)=O)c(O)c2)c(F)c1 [Example 1A, 4-(2-fluoro-4-{[(3-methylbutyl)amino]methyl}phenoxy)-2-hydroxybenzamide, hydrochloride salt] | 9.19 | 9.19 | 9.47 | half-life [8]: 2.9 h; clearance [8]: 18.6 mL/min/kg; Vd [8]: 2 L/kg
11 | CC(C)CCNCc1ccc(Oc2cccc(O)c2)c(F)c1.Cl [Example 2A, 3-(2-fluoro-4-{[(3-methylbutyl)amino]-methyl}phenoxy)phenol, hydrochloride salt] | 7.60 | 7.33 | 7.78 | clearance relative to hepatic blood flow [8]: approximately 5 times hepatic blood flow; half-life [8]: 0.7 h; clearance [8]: 361 mL/min/kg; Vd [8]: 10 L/kg
12 | NC(=O)c1ccc(Oc2c(F)cc(CNCCC3CC3)cc2F)cc1O [Example 4C] | 8.96 | 9.61 | 9.78 | –
13 | NC(=O)c1ccc(Oc2c(F)cc(CNC[C@@H]3CCCO3)cc2F)cc1O [Example 4D] | 8.31 | 9.74 | 9.46 | –
14 | NC(=O)c1ccc(Oc2ccc(CNCC3CCCO3)cc2F)cc1O (stereo not shown) [Example 3E] | 8.49 | 9.33 | 8.93 | –
15 | NC(=O)c1ccc(Oc2ccc(CNC[C@H]3CCCO3)cc2F)cc1O [Example 3G] | 7.99 | 8.96 | 8.41 | –
16 | CC[C@@H](NCc1ccc(Oc2ccc(C(N)=O)c(O)c2)c(F)c1)c1ccccn1 [Example 3J] | 7.78 | 7.86 | 7.58 | –
17 | NC(=O)c1ccc(Oc2c(F)cc(CNC3CCCCC3)cc2F)cc1O [Example 4B] | 9.06 | 10.14 | 10.11 | –
18 | CC(C)OCCNCc1ccc(Oc2ccc(C(N)=O)c(O)c2)c(F)c1 [Example 3C] | 8.77 | 8.42 | 8.78 | –
19 | NC(=O)c1ccc(Oc2c(F)cc(CNC3Cc4ccccc4C3)cc2F)cc1O [Example 4F] | 10.27 | 10.07 | – | –
20 | NC(=O)c1ccc(Oc2ccc(CNC3Cc4ccccc4C3)cc2F)cc1O [Example 3B] | 10.39 | 10.46 | 11.39 | –
